Measured values as given in the NIST ThermoML archive (doi:10.1016/j.jct.2012.08.022).
Numbers after ± are expanded uncertainties.

Key:
[1] = activity coefficient (dimensionless); of the first substance listed, at infinite dilution; xn = mol fraction of the nth substance listed; conditions: Liquid, Chromatography, x1 = 0
[2] = 101.33 kPa, Liquid, vibrating tube

| Compound | activity coefficient ([1]; 313 K) | activity coefficient ([1]; 333 K) | activity coefficient ([1]; 353 K) | activity coefficient ([1]; 373 K) | activity coefficient ([1]; 393 K) | activity coefficient ([1]; 413 K) | further results |
| --- | --- | --- | --- | --- | --- | --- | --- |
| C1COCCO1 [1,4-dioxane] + CCCCn1cc[n+](C)c1.O=S(=O)([O-])O | 2.72 ± 0.19 | 2.78 ± 0.19 | 2.99 ± 0.2 | 3.36 ± 0.23 | 3.8 ± 0.26 | 4.41 ± 0.3 |  |
| CC#N [acetonitrile] + CCCCn1cc[n+](C)c1.O=S(=O)([O-])O | 1.23 ± 0.08 | 1.31 ± 0.09 | 1.28 ± 0.08 | 1.26 ± 0.08 | 1.24 ± 0.08 | 1.19 ± 0.08 |  |
| ClC(Cl)Cl [trichloromethane] + Cn1cc[n+](C[Si](C)(C)C)c1.[Cl-] | 0.112 ± 0.03 | 0.153 ± 0.029 | 0.2 ± 0.029 | 0.253 ± 0.03 | 0.301 ± 0.031 | 0.338 ± 0.032 |  |
| c1ccccc1 [benzene] + Cn1cc[n+](C[Si](C)(C)C)c1.[Cl-] | 2.44 ± 0.17 | 2.3 ± 0.16 | 2.6 ± 0.18 | 2.94 ± 0.2 | 3.85 ± 0.26 | 4.36 ± 0.3 |  |
| C[N+](=O)[O-] [nitromethane] + Cn1cc[n+](C[Si](C)(C)C)c1.[Cl-] | 0.449 ± 0.036 | 0.442 ± 0.036 | 0.477 ± 0.037 | 0.527 ± 0.039 | 0.559 ± 0.04 | 0.599 ± 0.042 |  |
| Cc1ccccc1 [toluene] + Cn1cc[n+](C[Si](C)(C)C)c1.[Cl-] | 4.1 ± 0.28 | 3.8 ± 0.26 | 4.07 ± 0.28 | 4.67 ± 0.32 | 5.46 ± 0.37 | 6.21 ± 0.42 |  |
| CCOC(C)=O [ethyl acetate] + Cn1cc[n+](C[Si](C)(C)C)c1.[Cl-] | 4.4 ± 0.3 | 4.27 ± 0.29 | 5.14 ± 0.35 | 6.96 ± 0.47 | 8.26 ± 0.56 |  |  |
| c1ccccc1 [benzene] + CCCCn1cc[n+](C)c1.O=S(=O)([O-])O | 5.11 ± 0.35 | 4.95 ± 0.34 | 5.36 ± 0.37 | 5.28 ± 0.36 | 5.49 ± 0.37 | 5.69 ± 0.39 |  |
| C[N+](=O)[O-] [nitromethane] + CCCCn1cc[n+](C)c1.O=S(=O)([O-])O | 0.826 ± 0.053 | 0.771 ± 0.05 | 0.83 ± 0.053 | 0.939 ± 0.059 | 1.08 ± 0.07 | 1.18 ± 0.08 |  |
| CCCCn1cc[n+](C)c1.O=S(=O)([O-])O [1-butyl-3-methylimidazolium hydrogen sulfate] |  |  |  |  |  |  | mass density ([2]; 303 K): 1275.9 ± 0.4 kg/m3; mass density ([2]; 308 K): 1272.5 ± 0.4 kg/m3; mass density ([2]; 313 K): 1269 ± 0.4 kg/m3; mass density ([2]; 318 K): 1266.4 ± 0.4 kg/m3; mass density ([2]; 323 K): 1263.4 ± 0.4 kg/m3; mass density ([2]; 328 K): 1260.4 ± 0.4 kg/m3; mass density ([2]; 333 K): 1257.4 ± 0.4 kg/m3; mass density ([2]; 338 K): 1254.5 ± 0.4 kg/m3; mass density ([2]; 343 K): 1251.5 ± 0.4 kg/m3; mass density ([2]; 348 K): 1248.6 ± 0.4 kg/m3; mass density ([2]; 353 K): 1245.7 ± 0.4 kg/m3; mass density ([2]; 358 K): 1242.8 ± 0.4 kg/m3; mass density ([2]; 363 K): 1240 ± 0.4 kg/m3 |
| Cc1ccccc1 [toluene] + CCCCn1cc[n+](C)c1.O=S(=O)([O-])O | 8.51 ± 0.58 | 9.22 ± 0.63 | 9.7 ± 0.66 | 11.1 ± 0.8 | 13 ± 0.9 | 13.9 ± 1 |  |
| CCO [ethanol] + Cn1cc[n+](C[Si](C)(C)C)c1.[Cl-] |  | 0.153 ± 0.029 | 0.158 ± 0.029 | 0.163 ± 0.029 |  |  |  |
| CCOC(C)=O [ethyl acetate] + CCCCn1cc[n+](C)c1.O=S(=O)([O-])O | 9.02 ± 0.62 | 9.95 ± 0.68 | 11.7 ± 0.8 | 12.8 ± 0.9 | 13.8 ± 0.9 |  |  |
| CCCO [propan-1-ol] + Cn1cc[n+](C[Si](C)(C)C)c1.[Cl-] |  | 0.0747 ± 0.03 | 0.0878 ± 0.03 | 0.102 ± 0.03 |  |  |  |
| C1CCOC1 [tetrahydrofuran] + Cn1cc[n+](C[Si](C)(C)C)c1.[Cl-] | 3.09 ± 0.21 | 2.93 ± 0.2 | 3.7 ± 0.25 | 4.31 ± 0.29 | 4.79 ± 0.33 |  |  |
| C1COCCO1 [1,4-dioxane] + Cn1cc[n+](C[Si](C)(C)C)c1.[Cl-] | 2.14 ± 0.15 | 1.95 ± 0.13 | 2.07 ± 0.14 | 2.13 ± 0.14 | 2.16 ± 0.15 | 2.28 ± 0.16 |  |
| C1CCOC1 [tetrahydrofuran] + CCCCn1cc[n+](C)c1.O=S(=O)([O-])O | 5.1 ± 0.35 | 5.61 ± 0.38 | 6.6 ± 0.45 | 7.34 ± 0.5 | 8.55 ± 0.58 |  |  |
| COCCOC [1,2-dimethoxyethane] + Cn1cc[n+](C[Si](C)(C)C)c1.[Cl-] | 3.42 ± 0.23 | 3.49 ± 0.24 | 3.56 ± 0.24 | 3.89 ± 0.26 | 3.89 ± 0.26 | 3.77 ± 0.26 |  |
| COCCOC [1,2-dimethoxyethane] + CCCCn1cc[n+](C)c1.O=S(=O)([O-])O | 4.76 ± 0.32 | 5.61 ± 0.38 | 7.03 ± 0.48 | 8.44 ± 0.58 | 10 ± 0.7 | 11.6 ± 0.8 |  |
| CC#N [acetonitrile] + Cn1cc[n+](C[Si](C)(C)C)c1.[Cl-] | 0.629 ± 0.043 | 0.659 ± 0.045 | 0.695 ± 0.047 | 0.712 ± 0.047 | 0.73 ± 0.048 | 0.756 ± 0.05 |  |
| Cn1cc[n+](C[Si](C)(C)C)c1.[Cl-] [1-methyl-3-(trimethylsilylmethyl)imidazolium chloride] |  |  |  |  |  |  | mass density ([2]; 313 K): 1055.9 ± 1 kg/m3; mass density ([2]; 318 K): 1053 ± 0.9 kg/m3; mass density ([2]; 323 K): 1050.1 ± 0.9 kg/m3; mass density ([2]; 328 K): 1047.2 ± 0.9 kg/m3; mass density ([2]; 333 K): 1044.1 ± 0.9 kg/m3; mass density ([2]; 338 K): 1040.9 ± 0.9 kg/m3; mass density ([2]; 343 K): 1038.1 ± 0.9 kg/m3; mass density ([2]; 348 K): 1035.3 ± 0.9 kg/m3; mass density ([2]; 353 K): 1032.4 ± 0.9 kg/m3; mass density ([2]; 358 K): 1029.6 ± 0.9 kg/m3; mass density ([2]; 363 K): 1026.8 ± 0.9 kg/m3 |
| CO [methanol] + Cn1cc[n+](C[Si](C)(C)C)c1.[Cl-] |  | 0.0373 | 0.0421 | 0.0472 |  |  |  |
